The values that follow come from patent US9624758B2, “Use of oligo-quaternary compositions to increase scale inhibitor lifetime in a subterranean formation” (Ecolab USA Inc., priority 2012, dated 2017).

Like-named read-outs stand apart in the source and are kept apart here. A value given as a limit tells only on which side of the number the result lay.

The subject of data set [1] is Algae. The experiment in a line: Toxicity: EC50 Algae. Here is the method:
(§1) Product A was evaluated for toxicity using various tests.

Data set [2] has as its system Daphnia Magna. The experiment in a line: Toxicity: EC50 Daphnia Magna. The data set is classed as in vivo. Here is the method: as §1
Data set [3] is described as follows: Biodegradation. As to the method: as §1
A short description of data set [4]: Toxicity: LC50 Fathead Minnow. The settings on record: in vivo. As to the method: as §1
Data set [5] deals with Rat. Kind of data set: Toxicity: LC50 Rat. The settings on record: in vivo. Here is the method: as §1
The format of data set [6] is cell-based. Here is the method:
as §1

Data set [7] is described as follows: Microtox. Format: cell-based. As to the method: as §1
Data set [8] can be described thus: Compatibility test of scale inhibitor solutions with Product A solution in synthetic brine. The settings on record: for Clarity of Mixed Solutions 10:90: ratio 10:90; for Clarity of Mixed Solutions 50:50: ratio 50:50. Further details: key: C—Clear; P—Precipitate. Format: physicochemical. An excerpt: Individual solutions (Solutions 1B through 1G) of 10% Product B, C, D, E, F and G, respectively, in a synthetic brine (see the table below showing the synthetic brine composition) were mixed with a 10% solution (Solution 2) of Product A in the synthetic brine. The two sets of solutions were mixed with Solution 2 (i.e., each of Solutions 1B through 1G were mixed with Solution 2) at ratios of 10:90, 30:70, 50:50, 70:30 and 90:10 to indicate that no precipitate would form at any concentration in the mixing concentration range from 10:90 to 90:10. These compatibility screening tests indicate that it is unlikely for any incompatibility to be experienced during deployment and flow back of a squeeze treatment. Any incompatibilities under ambient conditions were observed visually from solution clarity and/or precipitate. The samples were then heated to the test temperature (80° C.) and any further incompatibilities after 2 and 24 hours recorded.

A short description of data set [9]: Coreflood on Bandera outcrop cores. The settings on record: post versus pre treatment. Here is the method: Two corefloods were carried out simultaneously on two Bandera outcrop cores (1.5″ diameter by 3″ length), using a Scaled Solutions dual coreflood apparatus. The composition of these cores is set out in the table below:
Both cores were wrapped with PTFE tape and cased in heat shrink tubing prior to insertion into a Viton sleeve and mounted in a Hassler type core holder with a confining pressure of 1200 psi. Both cores were then flushed with synthetic brine at 1 mL/min for at least 2 hours and until the differential pressure was stable. Brine was flushed at 0.5 mL/min overnight.
Both cores were saturated with synthetic brine under ambient conditions in the forward direction at 1 mL/min for 10 minutes, 2 mL/min for 10 minutes, 3 mL/min for 10 minutes, and 4 mL/min for 2 hours and until the differential pressure was stable. After a stable differential pressure was achieved, the permeability to brine was measured in the forward flow by flooding at 4, 3, 2, 1 mL/min at room temperature.
Brine was then injected into both cores in the forward direction at 1 mL/min until the oven reached a temperature of 80° C. […] Following plug saturation, the permeability of each core to synthetic brine was measured in the forward flow by flooding at 4, 3, 2, and 1 mL/min at 80° C. […]
Both cores were injected with synthetic brine at 2 mL/min with effluent samples being collected. The samples were analyzed by ICP. […]

Where [10] appears, read: 10% scale inhibitor solution : 10% Product A solution in synthetic brine, ambient, then 80° C. 2 and 24 hours.
Where [11] appears, read: 10% solutions in synthetic brine, with Product A.
Where [12] appears, read: ratio 30:70 (second column), 10% solutions in synthetic brine, with Product A.
Setting [13] is: ratio printed 30:70 (fourth column), 10% solutions in synthetic brine, with Product A.

For orientation: EC50 means the concentration needed to bring the measured effect to its halfway point. In general, LC50 refers to the concentration lethal to half of the exposed cells or organisms. The IC50 is the point on the concentration scale where inhibition reaches its midpoint.

`C[N+](C)(C)CC(O)C[N+](C)(C)C.[Cl-].[Cl-]` [Product A, 1,3-propandiaminium, 2-hydroxy-N,N,N,N′,N′,N′-hexamethyl-, dichloride]: the EC50 in data set [1] was found to be 1500 µg/mL; in [2], 186 µg/mL. This compound displayed a Biodegradation in data set [3] of 9%. Moreover, the LC50 in data set [4] is above 1000 µg/mL. In addition, the “LC50 Rat” value in data set [5] was 4,000 mg/kg. Besides, the “Ames Test” value in data set [6] is “Non-”. In addition, the concentration for half-maximal inhibition (IC50) in data set [7] (5 min, read-out: 5-min IC50 (95% CI)) is above 4000 µg/mL; in data set [7] (0.25 h, 15 min, read-out: 15-min IC50 (95% CI)), above 4000 µg/mL.
As to DETA phosphonate [Product C], the “Clarity of Mixed Solutions 10:90” value in [8] (setting [10]) and in data set [8] (setting [11]) was “C” in each case. Further, the “Clarity of Mixed Solutions 30:70” value in data set [8] (setting [12]) and in data set [8] (setting [13]) was “C” each time. For the same compound, the “Clarity of Mixed Solutions 50:50” value in data set [8] (setting [11]) is “C”.
With `O=P(O)(O)CN(CCCCCCN(CP(=O)(O)O)CP(=O)(O)O)CCCCCCN(CP(=O)(O)O)CP(=O)(O)O` [Product B, BHMT phosphonate], the “Clarity of Mixed Solutions 10:90” value in data set [8] (setting [10]) and in [8] (setting [11]) was “C” in each case. Further, the “Clarity of Mixed Solutions 30:70” value in data set [8] (setting [12]) and in data set [8] (setting [13]) was “C” in each case. In addition, the “Clarity of Mixed Solutions 50:50” value in [8] (setting [11]) is “C”. Besides, in data set [9], the “Permeability Recovery” value worked out at 75%.
